The results in this text go back to US11155523B2, “Biphenyl compound as CCR2/CCR5 receptor antagonist” (Medshine Discovery Inc., priority 2016, dated 2021).

Each structure is given as a SMILES string. Some results are limits rather than exact numbers.

For one data set, the target named is T1, CCR5 (Homo sapiens, UniProt P51681).
T1 construct: expressed in transfected cells; host or cells: HEK293, clone C13, passage P4
Kind of data set: CCR5 in vitro test: intracellular calcium signal detected by FLIPR. As to conditions: HEK293 cells expressing CCR5, agonist RANTES at EC80, calcium signal. It counts as cell-based. The method, boiled down: (§1)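 Receptor-expressing cells loaded with Fluo-4 Direct and probenecid (2.5 mM final), then preincubated with compounds (11-point 1:3 series) before challenge at EC80 of agonist (MCP-1 for CCR2, RANTES for CCR5). FLIPR calcium max−min signal; IC50 fitted.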

Data set [1] in a line: Comparative pharmacokinetics study in rats. In kind it is in vivo, SD male rats. As to conditions: rat. On the procedure: Experimental Example 2: Comparative Pharmacokinetics Study in Rats
SD male rats were used as the test animals in this study. The drug concentrations in plasma of the rats by intravenous or oral administration of test compounds WX017, WX047, WX079, WX088 and reference compound at different time points were quantitatively determined by LC/MS/MS, which were used to evaluate the pharmacokinetic profile of the two test drugs in rats.
A clear solution of the test compound was injected into SD rats via the tail vein (overnight fasting, 7-10 weeks old), and the test compound was orally administered to the SD rats (overnight fasting, 7-10 weeks old). Approximately 200 μL of blood was collected from the jugular vein or tail vein of the animals 0.0833, 0.25, 0.5, 1, 2, 4, 6, 8 and 24 hours after administration, and was placed in an anticoagulant tube containing EDTA-K2. The plasma was collected by centrifugation at 3000 g for 15 minutes at 4° C. The plasma concentration was determined by LC-MS/MS. The pharmacokinetic parameters were calculated by the non-compartment model linear logarithmic trapezoidal method using WinNonlin™ Version 6.3 (Pharsight, Mountain View, Calif.) pharmacokinetic software.

Data set [2] has as its system human liver microsomal cytochrome P450 isoenzymes. Kind of data set: Inhibition of human liver microsomal cytochrome P450 isoenzymes, overall conclusion. The settings on record: human liver microsomes. In kind it is in vitro ADME. The procedure:
(§2) Experimental Example 4 Inhibition Effect on the Activity of Human Liver Microsomal Cytochrome P450 Isoezymes (CYP1A2, CYP2C9, CYP2C19, CYP2D6 and CYP3A4)
(§3) A total of 5 specific probe substrates for CYP's five isozymes, Phenacetin (CYP1A2), Diclofenac (CYP2C9), […] (S)-Mephenytoin, CYP2C19), Dextromethorphan (CYP2D6) and Midazolam (CYP3A4) were incubated with human liver microsomes and test compounds, respectively, and reduced nicotinamide adenine dinucleotide phosphate (NADPH) was added to initiate the reaction. After the reaction, the sample was processed and liquid chromatography tandem mass spectrometry (LC-MS/MS) was used to quantitatively detect the […] metabolites produced by the specific substrate, Acetaminophen and 4′-hydroxydiclofenac, 4′-hydroxymephenytoin, Dextrorphan and 1′-hydroxymidazolam, in order to calculate the corresponding half maximal inhibitory concentration (IC50).
In general terms: Liver microsomes are vesicles of endoplasmic reticulum, rich in cytochrome P450 enzymes.

The target in the next data set is T2, CYP2C9 (Homo sapiens, UniProt P11712).
T2 construct: from tissue; host or cells: human liver microsomes
The data set can be described thus: Inhibition of human liver microsomal CYP2C9 (diclofenac probe). The settings on record: human liver microsomes. It counts as in vitro ADME. The procedure:
as §2, §3

For the next data set, the target named is T3, CYP2D6 (Homo sapiens, UniProt P10635).
T3 construct: from tissue; host or cells: human liver microsomes
Kind of data set: Inhibition of human liver microsomal CYP2D6 (dextromethorphan probe). It counts as in vitro ADME. As to conditions: human liver microsomes. The procedure: as §2, §3

Another data set deals with T4, CCR2 (Homo sapiens, UniProt P41597).
T4 construct: expressed in transfected cells; host or cells: HEK293, clone C7, passage P6
The data set can be described thus: CCR2 in vitro test: intracellular calcium signal detected by FLIPR. The settings on record: HEK293 cells expressing CCR2, agonist MCP-1 at EC80, calcium signal. It counts as cell-based. The method, boiled down:
as §1
For orientation: Calcium assays in cells follow changes in intracellular calcium, usually with a dye or a luminescent sensor.

In the next data set the target is T5, CYP3A4 (Homo sapiens, UniProt P08684).
T5 construct: from tissue; host or cells: human liver microsomes
The data set can be described thus: Inhibition of human liver microsomal CYP3A4 (midazolam probe). It counts as in vitro ADME. As to conditions: human liver microsomes, probe midazolam. On the procedure: as §2, §3

For a further data set, the target named is T6, CYP1A2 (Homo sapiens, UniProt P05177).
T6 construct: from tissue; host or cells: human liver microsomes
T6 sequence (P05177 1-516): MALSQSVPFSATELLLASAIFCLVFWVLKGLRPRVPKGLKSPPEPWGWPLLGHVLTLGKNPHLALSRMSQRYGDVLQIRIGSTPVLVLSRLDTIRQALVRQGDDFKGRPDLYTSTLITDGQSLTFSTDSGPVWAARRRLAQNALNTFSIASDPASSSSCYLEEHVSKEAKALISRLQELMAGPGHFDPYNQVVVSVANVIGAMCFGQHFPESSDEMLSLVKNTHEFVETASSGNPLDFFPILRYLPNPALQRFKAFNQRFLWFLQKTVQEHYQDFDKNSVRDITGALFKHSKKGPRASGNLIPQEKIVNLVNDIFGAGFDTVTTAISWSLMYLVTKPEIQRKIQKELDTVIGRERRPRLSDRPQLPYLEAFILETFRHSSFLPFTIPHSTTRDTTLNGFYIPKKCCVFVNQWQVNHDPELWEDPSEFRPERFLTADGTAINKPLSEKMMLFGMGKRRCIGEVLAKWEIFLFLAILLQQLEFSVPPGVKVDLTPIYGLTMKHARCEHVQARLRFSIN
The data set can be described thus: Inhibition of human liver microsomal CYP1A2 (phenacetin probe). In kind it is in vitro ADME. The settings on record: human liver microsomes. On the procedure:
as §2, §3

Another data set has as its target T7, CYP2C19 (Homo sapiens, UniProt P33261).
T7 construct: from tissue; host or cells: human liver microsomes
The data set can be described thus: Inhibition of human liver microsomal CYP2C19 ((S)-mephenytoin probe). The settings on record: human liver microsomes. It counts as in vitro ADME. The procedure: as §2, §3

Setting [3] is: male, Sprague-Dawley (SD), plasma, intravenous injection 2 mg/kg.

T4 sequence (P41597 whole entry, species assumed): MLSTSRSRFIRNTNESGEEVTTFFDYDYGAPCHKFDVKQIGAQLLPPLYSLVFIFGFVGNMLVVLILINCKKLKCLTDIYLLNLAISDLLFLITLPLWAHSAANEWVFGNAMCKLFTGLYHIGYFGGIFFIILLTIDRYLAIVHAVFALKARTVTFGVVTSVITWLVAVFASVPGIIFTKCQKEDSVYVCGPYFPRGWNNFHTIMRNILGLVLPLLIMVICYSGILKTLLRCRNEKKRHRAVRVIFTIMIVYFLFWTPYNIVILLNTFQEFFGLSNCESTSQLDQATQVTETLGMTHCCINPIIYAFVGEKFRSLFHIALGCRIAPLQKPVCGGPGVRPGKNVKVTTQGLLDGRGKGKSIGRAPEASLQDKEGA
T2 sequence (P11712 whole entry): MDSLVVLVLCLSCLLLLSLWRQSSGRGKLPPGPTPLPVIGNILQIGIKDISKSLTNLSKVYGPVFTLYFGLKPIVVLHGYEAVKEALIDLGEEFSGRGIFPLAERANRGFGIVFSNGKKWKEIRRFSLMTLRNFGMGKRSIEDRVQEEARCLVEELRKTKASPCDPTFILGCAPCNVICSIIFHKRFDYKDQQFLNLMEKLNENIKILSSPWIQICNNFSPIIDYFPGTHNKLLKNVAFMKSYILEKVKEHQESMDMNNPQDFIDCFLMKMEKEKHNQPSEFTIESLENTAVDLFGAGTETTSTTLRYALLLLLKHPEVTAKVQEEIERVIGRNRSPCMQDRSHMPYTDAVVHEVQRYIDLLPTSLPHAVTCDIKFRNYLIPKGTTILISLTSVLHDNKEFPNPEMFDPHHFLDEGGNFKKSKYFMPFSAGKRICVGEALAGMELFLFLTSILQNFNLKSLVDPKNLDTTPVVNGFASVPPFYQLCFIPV
T1 sequence (P51681 whole entry, species assumed): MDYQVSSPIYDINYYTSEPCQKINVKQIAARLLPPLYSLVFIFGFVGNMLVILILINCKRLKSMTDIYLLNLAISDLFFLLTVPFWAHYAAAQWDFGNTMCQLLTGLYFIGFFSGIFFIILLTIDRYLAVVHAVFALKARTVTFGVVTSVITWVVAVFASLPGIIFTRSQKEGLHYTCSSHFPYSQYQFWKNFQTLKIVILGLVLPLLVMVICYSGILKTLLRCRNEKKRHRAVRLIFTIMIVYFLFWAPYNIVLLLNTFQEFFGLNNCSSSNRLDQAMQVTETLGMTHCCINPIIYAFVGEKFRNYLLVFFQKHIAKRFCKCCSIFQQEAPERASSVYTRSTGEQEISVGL
T3 sequence (P10635 whole entry): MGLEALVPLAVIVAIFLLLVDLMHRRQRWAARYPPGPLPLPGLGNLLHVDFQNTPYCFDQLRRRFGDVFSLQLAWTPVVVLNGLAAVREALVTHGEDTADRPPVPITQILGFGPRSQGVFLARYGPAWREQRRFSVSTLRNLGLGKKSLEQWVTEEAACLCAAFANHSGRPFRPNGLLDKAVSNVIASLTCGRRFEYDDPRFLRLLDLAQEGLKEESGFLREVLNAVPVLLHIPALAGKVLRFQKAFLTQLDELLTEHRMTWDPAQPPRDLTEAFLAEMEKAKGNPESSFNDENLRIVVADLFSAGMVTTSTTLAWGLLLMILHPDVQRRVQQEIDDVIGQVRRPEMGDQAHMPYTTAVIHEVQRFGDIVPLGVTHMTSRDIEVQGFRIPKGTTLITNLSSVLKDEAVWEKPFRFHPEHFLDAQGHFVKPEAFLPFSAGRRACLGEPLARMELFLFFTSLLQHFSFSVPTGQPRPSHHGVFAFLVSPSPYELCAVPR
T7 sequence (P33261 whole entry): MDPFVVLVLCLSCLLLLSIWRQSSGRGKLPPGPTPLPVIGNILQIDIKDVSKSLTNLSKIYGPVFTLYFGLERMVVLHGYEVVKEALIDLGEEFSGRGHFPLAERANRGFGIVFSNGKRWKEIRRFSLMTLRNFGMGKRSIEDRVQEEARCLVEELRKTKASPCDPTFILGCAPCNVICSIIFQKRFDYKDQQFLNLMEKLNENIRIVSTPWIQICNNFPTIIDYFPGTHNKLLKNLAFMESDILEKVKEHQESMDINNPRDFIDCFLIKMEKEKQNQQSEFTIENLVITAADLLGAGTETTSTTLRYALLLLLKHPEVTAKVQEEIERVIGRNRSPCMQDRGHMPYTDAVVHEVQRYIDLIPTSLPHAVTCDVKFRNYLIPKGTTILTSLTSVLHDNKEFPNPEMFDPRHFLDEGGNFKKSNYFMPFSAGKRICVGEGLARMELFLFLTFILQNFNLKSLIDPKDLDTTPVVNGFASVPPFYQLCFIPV
T5 sequence (P08684 whole entry): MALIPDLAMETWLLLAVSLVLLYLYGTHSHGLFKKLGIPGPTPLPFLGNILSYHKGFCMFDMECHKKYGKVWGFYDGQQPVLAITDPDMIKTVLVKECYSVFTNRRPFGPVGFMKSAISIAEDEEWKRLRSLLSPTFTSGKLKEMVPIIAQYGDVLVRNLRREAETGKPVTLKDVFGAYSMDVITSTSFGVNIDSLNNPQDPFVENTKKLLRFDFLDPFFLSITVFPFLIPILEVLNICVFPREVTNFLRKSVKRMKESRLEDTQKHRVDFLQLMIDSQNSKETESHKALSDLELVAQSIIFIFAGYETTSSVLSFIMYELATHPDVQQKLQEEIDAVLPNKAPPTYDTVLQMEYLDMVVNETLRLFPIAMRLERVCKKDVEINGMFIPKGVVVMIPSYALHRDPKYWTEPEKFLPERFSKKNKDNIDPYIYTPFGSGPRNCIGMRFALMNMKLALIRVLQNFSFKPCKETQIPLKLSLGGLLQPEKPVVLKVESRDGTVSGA

For the molecule `CCCCOCCOc1ccc(-c2ccc(OC)c(/C=C/C(=O)Nc3ccc([S@+]([O-])Cc4c(C)ncn4CC)cc3)c2)cc1` [WX079], the half-maximal inhibitory concentration (IC50) is 0.0058 µM at CCR5; greater than 50 µM at CYP2C9; greater than 50 µM against CYP2D6; 0.0056 µM on CCR2; 28.3 µM at CYP3A4; greater than 50 µM against CYP1A2. The molecule also displayed an IC50 on CYP2C19 greater than 50 µM. The clearance in [1] (setting [3]) worked out at 0.224 mL/min/kg. Further, the half-life in [1] (setting [3]) is 9.47 h. This molecule also displayed a bioavailability in [1] (male, Sprague-Dawley (SD), plasma, oral 10 mg/kg vs intravenous 2 mg/kg) of 32.6%. Also, the “Area Under a Curve (0-inf)” value in data set [1] (intravenous injection 2 mg/kg) was determined as 255.072 µM·h. For the same molecule, in [1] (oral 10 mg/kg), the “Area Under a Curve (0-inf/0-last)” value is 404.142 µM·h. The Peak time in data set [1] (oral 10 mg/kg) was found to be 3.0 h. In addition, the “Oral plasma system exposure (AUC0-inf) as multiple of the reference compound” value in [1] (oral, relative to Cenicriviroc) was 12.6 times. Moreover, the “Plasma clearance as percent of that of the reference compound” value in [1] (relative to Cenicriviroc) is listed as 14%. The “Risk of inhibiting isoenzymes of human liver microsomal cytochrome P450 (conclusion in words)” value in data set [2] is “no risk on inhibiting five isoenzymes”.

By IC50 is commonly meant the concentration that inhibits the measured activity by half. As a reminder, the clearance is the rate of elimination divided by the concentration. Low readings indicate inefficient removal, high ones efficient removal. What is called half-life is the time needed for the level to fall by half in the phase considered. High values mean slow loss, low ones fast loss. Usually bioavailability stands for the share of a dose that reaches the circulation, judged against a reference dose that is usually intravenous. Read a low bioavailability as little systemic uptake.
